# Several values for one entry are separate records, joined by “and”; a condition that tells them apart may be missing. Equal entries are not always repeated.
# Key:
# tobacco [1] = test: Spray (tank mix) phytotoxicity/herbicidal effect on greenhouse tobacco; type: in vivo, Nicotiana tabacum (tobacco); settings: for Phytotoxicity at 4d post-spraying: Percent Leaf Area Affected / Phytotoxicity at 6d post-spraying: Percent Leaf Area Affected: paraquat 187 mg/l and/or Ethephon 1000 ul/l
# Method: (§1) In all experiments, deionized ultra-pure water was used in preparing solutions. Spray solutions were used as soon as possible after mixing.
# (§2) COC was added to all spray solutions at a rate of 0.25% (v/v). For all treatments containing both an herbicide and an SAR inducer, these materials were mixed and applied in a single spray solution (commonly known as a tank mix). After spraying, plants were moved to the greenhouse and arranged in a randomized complete block experimental design. Plants were evaluated for phytotoxicity/herbicidal effects after spraying by assessing damage according to percent leaf area affected.
# (§3) All the data were subject to an analysis of variance, and the mean separations were determined with Duncan's new multiple range test at α=0.05. The present invention may be illustrated by the following representative examples: […]
# [2] = system: lambsquarter (Chenopodium album); test: Spray (tank mix) phytotoxicity/herbicidal effect on lambsquarter; type: in vivo
# Method: as §1, §2, §3
# tobacco [3] = system: tobacco; parameters: species or system Nicotiana tabacum (tobacco); settings: in vivo
# Method: as §2, §3
# tobacco [4] = system: tobacco; parameters: species or system Nicotiana tabacum (tobacco); settings: in vivo; remark: listed apart in the source
# Method: as §2
# All the data were subject to an analysis of variance, and the mean separations were determined with Duncan's new multiple range test at α=0.05. The present invention may be illustrated by the following representative examples:
# In this experiment, the plants were treated and kept in the dark for 48 hours from the first spray treatment to delay the light-dependent effects of paraquat.
# giant foxtail = test: Spray (tank mix) phytotoxicity/herbicidal effect on giant foxtail; type: in vivo; settings: monocotyledonous plant species (giant foxtail, Table 2)
# Method: as §1, §2, §3
# [5] = tobacco, added to the paraquat spray solution
# [6] = tobacco, Actigard 187 mg/l, with or without paraquat 150 mg/l, COC 0.25%
# [7] = tobacco, Actigard 935 mg/l, with or without paraquat 150 mg/l, COC 0.25%
# [8] = lambsquarter, Actigard 187 mg/l, with or without paraquat 150 mg/l, COC 0.25%
# [9] = lambsquarter, Actigard 935 mg/l, with or without paraquat 150 mg/l, COC 0.25%
smiles,measurement,setting,value
"O=C(O)c1cc(F)ccc1O [5-FSA, 5-fluorosalicylate]",Phytotoxicity at 6d,tobacco [1]; in vivo,2.3 B
same,Phytotoxicity at 8d,tobacco [1]; in vivo,2.8 B
same,Phytotoxicity at 11d,tobacco [1]; in vivo,2.0 B
same,Safening from paraquat herbicide damage (in words),tobacco [1]; [5],able to safen tobacco from paraquat
"CSC(=O)c1cccc2nnsc12 [Actigard, Benzo(1,2,3)thiadiazole-7-carbothioic acid-S-methyl ester]",Phytotoxicity at 2d: Percent Leaf Area Affected,tobacco [1]; [6],0 A Percent
same,Phytotoxicity at 4d: Percent Leaf Area Affected,tobacco [1]; [6],0 A Percent
same,Phytotoxicity at 7d: Percent Leaf Area Affected,tobacco [1]; [6],0 A Percent
same,Phytotoxicity at 2d: Percent Leaf Area Affected,tobacco [1]; [7],1 A Percent
same,Phytotoxicity at 4d: Percent Leaf Area Affected,tobacco [1]; [7],0 A Percent
same,Phytotoxicity at 7d: Percent Leaf Area Affected,tobacco [1]; [7],0 A Percent
same,Safening from paraquat herbicide damage (in words),tobacco [1]; [5],safened the plants from paraquat herbicide damage
same,Phytotoxicity at 2d: Percent Leaf Area Affected,[2]; [8],0 A Percent
same,Phytotoxicity at 4d: Percent Leaf Area Affected,[2]; [8],0 A Percent
same,Phytotoxicity at 7d: Percent Leaf Area Affected,[2]; [8],0 A Percent
same,Phytotoxicity at 2d: Percent Leaf Area Affected,[2]; [9],0 A Percent
same,Phytotoxicity at 4d: Percent Leaf Area Affected,[2]; [9],0 A Percent
same,Phytotoxicity at 7d: Percent Leaf Area Affected,[2]; [9],0 A Percent
same,Protection from paraquat damage (in words),"[2]; lambsquarter, tank mixed or applied with paraquat",did show safening
"c1cc[n+]2c(c1)-c1cccc[n+]1CC2 [Diquat, 1,1′-ethylene-2,2′-bipyridyidiylium ion]",Phytotoxicity at 1d,tobacco [1]; in vivo,3.3. D
same,Phytotoxicity at 4d,tobacco [1]; in vivo,4.3 C
same,Phytotoxicity at 6d,tobacco [1]; in vivo,4.3 C
same,Phytotoxicity at 12d,tobacco [1]; in vivo,3.9 C
"O=P(O)(O)CCCl [Ethephon, (2-choroethyl) phosphonic acid]",Safening from paraquat with pre-treatment with 1-MCP (in words),"tobacco [1]; tobacco, 1-MCP, an inhibitor of ethylene perception",observed regardless of pre-treatment with 1-MCP
same,Safening from paraquat herbicide damage (in words),tobacco [1]; [5],safened the plants from paraquat herbicide damage
same,Phytotoxicity at 4d post-spraying: Percent Leaf Area Affected,"tobacco [1]; tobacco, COC 0.25%",0 A Percent
same,Phytotoxicity at 6d post-spraying: Percent Leaf Area Affected,"tobacco [1]; tobacco, COC 0.25%",0 A Percent
"O=C([O-])c1ccccc1O.[Na+] [NaSA, sodium salicylate]",Protection from paraquat damage (in words),tobacco [3],significant protection from paraquat damage
same,Safening from paraquat herbicide damage (in words),tobacco [1]; in vivo,safened the plants from paraquat herbicide damage
same,Safening against diquat (in words),"tobacco [1]; tobacco, Table 3",able to safen tobacco against the herbicide diquat
same,Safening from paraquat (in words),tobacco [4],resulted in safening
same,Safening from paraquat damage (in words),giant foxtail,safen plants from paraquat damage
same,Protection from paraquat damage (in words),[2]; in vivo,limited or no protection from paraquat damage
"C[n+]1ccc(-c2cc[n+](C)cc2)cc1 [Paraquat, 1,1′-dimethyl-4,4′-bipyridinium ion]",Phytotoxicity at 1d post-spraying,tobacco [3],3.7 D
same,Phytotoxicity at 4d post-spraying,tobacco [3],3.8 D
same,Phytotoxicity at 6d post-spraying,tobacco [3],3.4 E
same,Phytotoxicity at 1d,tobacco [1]; in vivo,4.1 E
same,Phytotoxicity at 1d: Percent Leaf Area Affected,tobacco [1]; in vivo,75 E Percent
same,Phytotoxicity at 2d: Percent Leaf Area Affected,tobacco [1]; in vivo,61.25 E Percent and 65 E Percent
same,Phytotoxicity at 4d: Percent Leaf Area Affected,tobacco [1]; in vivo,62.5 F Percent
same,Phytotoxicity at 5d: Percent Leaf Area Affected,tobacco [1]; in vivo,83.75 E Percent
same,Phytotoxicity at 7d: Percent Leaf Area Affected,tobacco [1]; in vivo,50 D Percent and 96.5 D Percent
same,Phytotoxicity at 8d,tobacco [1]; in vivo,5.0 C
same,Phytotoxicity at 10d: Percent Leaf Area Affected,tobacco [1]; in vivo,99 F Percent
same,Phytotoxicity at 11d,tobacco [1]; in vivo,5.0 E
same,Phytotoxicity at 12d,tobacco [1]; in vivo,4.2 C
same,Phytotoxicity at 4d post-spraying: Percent Leaf Area Affected,"tobacco [1]; tobacco, COC 0.25%",95 C Percent
same,Phytotoxicity at 6d post-spraying: Percent Leaf Area Affected,"tobacco [1]; tobacco, COC 0.25%",97.5 C Percent
same,Phytotoxicity after 3 days in the light (5 days after initial spray),tobacco [4],5.0 D
same,Phytotoxicity after 12 days in the light (14 days after initial spray),tobacco [4],5.0 D
same,Phytotoxicity at 2d,[2]; in vivo,3.9 C
same,Phytotoxicity at 2d: Percent Leaf Area Affected,[2]; in vivo,72.5 C Percent
same,Phytotoxicity at 4d,[2]; in vivo,3.9 BC
same,Phytotoxicity at 4d: Percent Leaf Area Affected,[2]; in vivo,72.5 BC Percent
same,Phytotoxicity at 7d,[2]; in vivo,3.9 BC
same,Phytotoxicity at 7d: Percent Leaf Area Affected,[2]; in vivo,72.5 BC Percent

# Reference: US6919298B2, “Enhanced herbicide composition” (Valent Biosciences Corporation, priority 2002, dated 2005)
